From patent US20250309306A1, “Cationic Viologen Derivatives and Use Thereof in Redox Flow Batteries” (priority 2024, published 2025)

Columns and labels:
Format in all cases: physicochemical
[1] = Pulse voltammetry (SWV/DPV), three-electrode cell: redox potential of first reduction
[2] = Water solubility by quantitative NMR; conditions: for solubility: water (D2O), water, thermodynamic from solid
Method: The compound to be tested was dissolved in 100 μl D2O until saturation was reached. Any undissolved compound was filtered off and the filtrate was combined with a standard solution containing a known amount of a calibration compound as an internal reference. The sample is investigated using 1H NMR. […] The solubility of the compound to be tested was then calculated from a relative concentration determination based on the known calibration compound concentration.

[3] = Diffusion coefficient by Levic plot, rotating disk electrode
Method: The diffusion coefficient of molecules was measured using Levic plot, obtained using a rotating disk electrode (RDE) setup according to standard procedures.

[4] = Cyclic voltammetry, repeated charging-discharging cycles (integrated area over 100 scans)
Reaction rate (k°) = assay: Reaction rate (k°)
[5] = Table 2, Ag/AgCl reference, +0.200 V offset applied, glassy carbon working electrode
[6] = Table 3, comparison of transquat, diquat and annulated diquat

Question: Which “Redox Potential (V vs SHE)” value [1, 5] does the source give for `[Cl-].[Cl-].c1cc2c3[n+](c1)CCc1ccc[n+](c1-3)CC2` here?
Answer: −0.48 V vs SHE

Question: What about the “Redox Potential (V vs SHE)” value [1, 6] of the same compound?
Answer: −0.48 V vs SHE

Question: And the “Solubility in water (M, at 20° C.)” value ([2]; Table 3, at 20° C.)?
Answer: >1500 mM

Question: And the solubility ([2]; Table 2, at 20°C)?
Answer: > 1500 mM

Question: What about the “Diffusion coefficient (D, in cm^2s^−1)” value ([3]; Table 2) of the same compound?
Answer: 1.62 × 10^−5 cm^2s^−1

Question: And the “Diffusion coefficient (D, in cm^2s^−1)” value ([3]; Table 3)?
Answer: 1.62 × 10^−5 cm^2s^−1

Question: What about the “Capacity over 100 cycles” value ([4]; Table 2) of the same compound?
Answer: 0.98

Question: What about the “Capacity over 100 cycles” value ([4]; Table 3) of the same compound?
Answer: 0.98

Question: And the “Reaction Rate (k°, in cm/s)” value (Reaction rate (k°); Table 2)?
Answer: 0.00764 cm/s

Question: What about the “Reaction Rate (k°, in cm/s)” value (Reaction rate (k°); Table 3) of the same compound?
Answer: 0.00764 cm/s

Question: For `Cc1cc2c3[n+](c1)CCc1cc(C)c[n+](c1-3)CC2.[Cl-].[Cl-]`, which “Redox Potential (V vs SHE)” value [1, 5] is on record?
Answer: −0.59 V vs SHE

Question: What about the solubility ([2]; Table 2, at 20°C) of the same compound?
Answer: ~1000 mM

Question: And the “Diffusion coefficient (D, in cm^2s^−1)” value ([3]; Table 2)?
Answer: 6.45 × 10^−6 cm^2s^−1

Question: And the “Capacity over 100 cycles” value ([4]; Table 2)?
Answer: 0.95

Question: And the “Reaction Rate (k°, in cm/s)” value (Reaction rate (k°); Table 2)?
Answer: 0.016 cm/s

Question: What does the source list for `COc1cc[n+]2c3c1CC[n+]1ccc(OC)c(c1-3)CC2.[Cl-].[Cl-]`?
Answer: Redox Potential (V vs SHE) [1, 5]: −0.80 V vs SHE; Solubility in water (M, at 20°C) ([2]; Table 2, at 20°C): Low; Diffusion coefficient (D, in cm^2s^−1) ([3]; Table 2): 2.5 × 10^−6 cm^2s^−1; Capacity over 100 cycles ([4]; Table 2): 0.80; Reaction Rate (k°, in cm/s) (Reaction rate (k°); Table 2): 0.00414 cm/s

Question: Which “Redox Potential (V vs SHE)” value [1, 5] does the source give for `CCOc1cc2c3[n+](c1)CCc1cc(OCC)c[n+](c1-3)CC2.Cl` here?
Answer: −0.80 V vs SHE

Question: And the solubility ([2]; Table 2, at 20°C)?
Answer: > 1500 mM

Question: And the “Diffusion coefficient (D, in cm^2s^−1)” value ([3]; Table 2)?
Answer: 1.41 × 10^−5 cm^2s^−1

Question: What about the “Capacity over 100 cycles” value ([4]; Table 2) of the same compound?
Answer: 0.99

Question: What about the “Reaction Rate (k°, in cm/s)” value (Reaction rate (k°); Table 2) of the same compound?
Answer: 0.00615 cm/s

Question: For `[Cl-].[Cl-].c1cc2c3[n+](c1)CCCc1ccc[n+](c1-3)CCC2`, which “Redox Potential (V vs SHE)” value [1, 5] is on record?
Answer: −0.64 V vs SHE

Question: What about the solubility ([2]; Table 2, at 20°C) of the same compound?
Answer: > 1500 mM

Question: And the “Diffusion coefficient (D, in cm^2s^−1)” value ([3]; Table 2)?
Answer: 1.63 × 10^−5 cm^2s^−1

Question: And the “Capacity over 100 cycles” value ([4]; Table 2)?
Answer: 0.98

Question: And the “Reaction Rate (k°, in cm/s)” value (Reaction rate (k°); Table 2)?
Answer: 0.0194 cm/s

Question: For `[Br-].[Br-].c1cc2c3[n+](c1)CC[n+]1cccc(c1-3)CC2` [reference compound], which “Redox Potential (V vs SHE)” value [1, 6] is on record?
Answer: −0.42 V vs SHE

Question: And the solubility ([2]; Table 3, at 20° C.)?
Answer: > 1500 mM

Question: What about the “Diffusion coefficient (D, in cm^2s^−1)” value ([3]; Table 3) of the same compound?
Answer: 9.87 × 10^−6 cm^2s^−1

Question: What about the “Capacity over 100 cycles” value ([4]; Table 3) of the same compound?
Answer: 0.98

Question: And the “Reaction Rate (k°, in cm/s)” value (Reaction rate (k°); Table 3)?
Answer: 0.00768 cm/s
